Experimental data: patent US20090227503A1, “PARATHYROID HORMONE TREATMENT FOR ENHANCED ALLOGRAFT AND TISSUE-ENGINEERED RECONSTRUCTION OF BONE DEFECTS” (UNIVERSITY OF ROCHESTER, priority 2008, published 2009)

Key:
femoral allograft = test: Mouse femoral allograft, torsion testing of grafted femurs (Example 1); assay type: in vivo, C57B1/6 mice
Protocol: Femoral allograft surgeries were performed on C57B1/6 mice as previously described. Briefly, a 4 mm mid-diaphyseal segment was removed by osteotomizing the femur and a processed allograft was implanted and secured in place with a stainless steel intramedullary (IM) pin. After 1 week, 8 mice were given daily subcutaneously injections of 0.4 mg/kg PTH (1-34) (Forteo, Eli Lilly and Company, Indianapolis, Ind.) while 5 mice with grafts were given the same volume of saline daily, serving as controls. Animals were sacrificed 6 weeks after surgery, the grafted femurs were carefully dissected and cleaned without disrupting the callus, and the IM pin was carefully removed. The femurs were then stored frozen at −80° C. until evaluation. After imaging, the ends of the femurs were cemented into 6.35 mm square aluminum tubes using PMMA in a custom jig to ensure axial alignment and maintain a gage length of 7.3±0.8 mm. Samples were then mounted on an EnduraTec TestBench™ system with a 200 N·mm torque cell (Bose Corp., Minnetonka, Minn.) and tested in torsion at a rate of […] until failure to determine the torsional stiffness, ultimate torque, ultimate rotation, and strain energy to failure. Mode of Failure was determined by x-ray after testing. As described previously (Reynolds D G, et al; J. Biomech. 2007; E-pub May 22) the mode of failure can be categorized by location of the failure. “Pre-union” failures occur at the graft-host junction resulting in an intact graft that simply pulled out from the callus. “Early union” failures occur near the graft-host junction, but involve partial fragmentation of the graft or host bone.

grafted femurs = test: Torsion testing of grafted femurs (Example 4); assay type: in vivo, mice
Protocol: Four-mm long bone allografts were harvested from donor mice, and were processed and implanted into intecalary defects 195 in the femur of other mice and secured in place using a stainless steel intramedullary pin 190, as shown in FIG. 13. One week after surgery, daily injections of 40 μg/kg hrPTH (1-34) (Lilly, Inc., Indianapolis, Ind.) were initiated in half of the mice, while the others received injections of saline control. Weekly x-rays were taken to monitor progression (Faxitron X-Ray LLC, Wheeling, Ill.).
One cohort of the study groups used 14 mice from each treatment (PTH and control) for imaging and mechanical material testing and were sacrificed 6 weeks after surgery. Each femur was harvested by disarticulating the hip and knee and removing the intramedullary stainless-steel pin. Specimens were moistened with saline and frozen at −20° C. until thawed for micro-CT imaging and torsion testing. Specimens were scanned at […] isotropic resolution using the Scanco VivaCT 40 (Scanco Medical AG, Bassersdorf, Switzerland). From these 3D images, the graft and callus bone volumes (BVGraft, BVCallus) were measured by manual segmentation, followed by standardized thresholding at a grayscale corresponding to 750 mgHA/cm^3. The cross-sectional polar moment of inertias (PMI) were computed for each slice throughout the grafted region and the maximum, minimum and average PMI (PMIMax, PMIMin, PMIAve) were investigated to determine their contribution to the biomechanics of the grafted femurs.
The Union Ratio was also calculated. The Union Ratio measures the graft surface area upon which mineralized callus has formed. If the voxels adjacent to the graft surface are boney callus, the area of that region of the graft is measured and normalized to the total graft surface area. Imaging data (not shown) indicated the bare surface of the graft in blue, with regions of union to the callus depicted as red. Each half (proximal and distal) of the graft was evaluated separately and the lesser ratio of union area to total graft surface area was given as the Union Ratio for that specimen. Callus formation that bridged from host-to-host over the graft was determined by evaluating serial axial cross sections from micro-CT images and given a binary result. These samples were then mechanically tested in torsion. Yield torque (TYield), ultimate torque (TUlt), torsional rigidity (TR), toughness (or work to failure) and the twist at ultimate torque were determined for each specimen. Finally, the mode of failure for each specimen was determined using an x-ray image analysis (not shown).

[1] = tested on: callus vasculature of grafted femurs; test: Callus vascularization by micro-CT after vascular perfusion (Example 4); assay type: in vivo, mice; details: for vessel volume within callus, more in saline treated than PTH treated specimens: not significant, n=4 per group
Protocol: A second cohort of 16 animals underwent the same surgery with sacrifice of 8 animals at 4 weeks and 8 animals at 6 weeks post-surgery to evaluate the degree of vascularization of the graft and callus region using vascular profusion as described previously (Duvall 2004). Half of the animals were treated with PTH, and the other half with saline.
On the day of sacrifice, animals were injected with a fatal dose of ketamine and xylazine and their vasculature was perfused using a syringe pump through a needle placed into the left ventricle of the heart. The right atrium was also punctured to allow the blood to drain out. They were first perfused with heparinized (100 units/ml) saline to prevent blood clotting, followed by 10% neutral-buffered formalin, and lastly with lead-chromate contrast agent (Microfil 122, Flow Tech, Inc. Carver, Mass.). Samples were fixed in 10% formalin overnight followed by harvest of the femur and pin extraction. Samples were micro-CT scanned once after fixation, and again after EDTA decalcification. Using both scans the vasculature was evaluated within the mineralized callus. The vessel volume, thickness, spacing and vessel number was determined.

[2] = 0.4 mg/kg PTH (1-34) s.c. daily, 6 weeks after surgery, Mean (Standard Deviation)
[3] = of 8 PTH treated mice, all 5 controls pre-union
[4] = PTH Graft, 6 weeks after implantation, mean

CC[C@H](C)[C@H](NC(=O)[C@H](CCC(=O)O)NC(=O)[C@H](CO)NC(=O)[C@@H](NC(=O)[C@@H](N)CO)C(C)C)C(=O)N[C@@H](CCC(N)=O)C(=O)N[C@@H](CC(C)C)C(=O)N[C@@H](CCSC)C(=O)N[C@@H](Cc1cnc[nH]1)C(=O)N[C@@H](CC(N)=O)C(=O)N[C@@H](CC(C)C)C(=O)NCC(=O)N[C@@H](CCCCN)C(=O)N[C@@H](Cc1cnc[nH]1)C(=O)N[C@@H](CC(C)C)C(=O)N[C@@H](CC(N)=O)C(=O)N[C@@H](CO)C(=O)N[C@@H](CCSC)C(=O)N[C@@H](CCC(=O)O)C(=O)N[C@@H](CCCN=C(N)N)C(=O)N[C@H](C(=O)N[C@@H](CCC(=O)O)C(=O)N[C@@H](Cc1c[nH]c2ccccc12)C(=O)N[C@@H](CC(C)C)C(=O)N[C@@H](CCCN=C(N)N)C(=O)N[C@@H](CCCCN)C(=O)N[C@@H](CCCCN)C(=O)N[C@@H](CC(C)C)C(=O)N[C@@H](CCC(N)=O)C(=O)N[C@@H](CC(=O)O)C(=O)N[C@H](C(=O)N[C@@H](Cc1cnc[nH]1)C(=O)N[C@@H](CC(N)=O)C(=O)N[C@@H](Cc1ccccc1)C(=O)O)C(C)C)C(C)C [PTH, PTH (1-34)]
Energy to failure (femoral allograft; [2]): 0.25 (0.31)
Normalized Rotation at TUlt (femoral allograft; [2]): 0.97 (0.23) deg/mm gage length
Ultimate Torque (femoral allograft; [2]): 13.5 (4.7) N*mm
normalized rotation at peak torque (femoral allograft; 6 weeks): 0.97 degrees per mm of gage length
stiffness as share of normal unoperated femur properties (femoral allograft; after 6 weeks of healing): ~120%
strength as share of normal unoperated femur properties (femoral allograft; after 6 weeks of healing): ~67%
specimens failing in "early union" mode (femoral allograft; [3]): 2
specimens with "mature union" failure (femoral allograft; [3]): 1
enhancement in ultimate torque (femoral allograft; vs saline, 6 weeks): 1.65 fold
stiffness relative to saline (times stiffer) (femoral allograft; vs saline, 6 weeks): 3.3 times
Grafted femur mode of failure after torsion testing: Early Union (number of femurs) (grafted femurs; 6 weeks): 3
Grafted femur mode of failure after torsion testing: Mature Union (number of femurs) (grafted femurs; 6 weeks): 3
Grafted femur mode of failure after torsion testing: Pre-Union (number of femurs) (grafted femurs; 6 weeks): 8
rate of twist at TUlt as fraction of control grafted specimens (grafted femurs; 6 weeks): ⅓
TR (grafted femurs; [4]): 1175 N*mm^2/Rad
Tult (grafted femurs; [4]): 13.2 N*mm
Twist at Tult (grafted femurs; [4]): 0.020 Rad/mm
Tyield (grafted femurs; [4]): 10.5 N*mm
Work to TUlt (grafted femurs; [4]): 0.167 Nmm*Rad/mm
Work to TYield (grafted femurs; [4]): 0.0687 Nmm*Rad/mm
specimens that failed in a manner not simply graft-pullout from the host (grafted femurs; saline only 3, not statistically significant): Six
Yield Torque, greater by (grafted femurs; vs saline grafted femurs, 6 weeks): 72%
Ultimate Torque, greater by (grafted femurs; vs saline grafted femurs, 6 weeks, not significant): 23%
torsional rigidity of grafted femurs (grafted femurs; vs saline, 6 weeks): doubled
vessel volume within callus, more in saline treated than PTH treated specimens ([1]; 4 weeks): 74%
blood vessel diameter, greater in saline treated than PTH treated specimens ([1]; 4 weeks, p=0.05): 55%
blood vessel diameter, greater in saline treated than PTH treated specimens ([1]; 6 weeks): 78%
vessel volume within callus, more in saline treated than PTH treated specimens ([1]; 6 weeks): 88%
specimens in which the intramedullary blood vessel had bridged the length of the graft ([1]; by 6 weeks, saline 3 of 4): 4 of 4
